In paper PMC5880951, “Pentocin MQ1: A Novel, Broad-Spectrum, Pore-Forming Bacteriocin From Lactobacillus pentosus CS2 With Quorum Sensing Regulatory Mechanism and Biopreservative Potential” (Frontiers in Microbiology, 2018):

Legend:
[1] = tested on: Micrococcus luteus ATCC 10240; assay: Membrane permeabilization (pore formation), SYTOX green; assay type: cell-based; details: 5 μM SYTOX green, pentocin MQ1 at 5 X MIC, nisin as positive control, Real-Time PCR read-out, triplicates
Experimental: Pore formation assay was done to understand the mechanism of action of pentocinMQ1. M. luteus was grown in Mueller-Hinton broth until OD600nm = 0.45 after which 5 μM SYTOX green dye (Invitrogen, USA) was added. Ninety microliters of stained bacteria was added to MicroAmp Fast Optical 96-well reaction plate (Applied Biosystems, Life Technologies, USA). After a stable line base was attained, 10 μl of pentocin MQ1 (5 X MIC) was added to the stained bacteria. Sodium phosphate buffer (5 mM) and nisin (Sigma-Aldrich, USA) were added to stained bacteria in different wells to serve as negative and positive controls, respectively. Experiments were done in triplicates. Fluorescence as a result of binding of SYTOX green to leaked intracellular DNA was monitored using Real-Time PCR (Applied Biosystems, USA).

M. luteus = details: within 30 min; ref Barbour et al., 2016; cited from earlier work
Excerpt: The two main modes of action of LAB bacteriocins against Gram-positive bacteria are pore formation and inhibition of cell wall synthesis (Cotter et al., [2013]). […] This implies that pore formation is a more rapid killing mechanism.

Bacillus spp. = details: ref Mota-Meira et al., 2000; cited from earlier work
Experimental: (§1) Pentocin MQ1 was strongly inhibitory against L. monocytogenes NCTC 10890, M. luteus ATCC 10240, and B. cereus ATCC14579 at micromolar concentrations. High activity at low concentration is a desirable property of natural biopreservatives (Bali et al., [2016]). MIC-values for nisin A against Micrococcus spp. and Bacillus spp. (Mota-Meira et al., [2000]) are lower than that of pentocin MQ1. […] After 120 min ...

Micrococcus spp. = details: ref Mota-Meira et al., 2000; cited from earlier work
Experimental: as §1

nisin
fluorescence intensity (SYTOX green binding to leaked intracellular DNA) [1]: higher fluorescence intensity | increase in fluorescence (M. luteus): caused an increase in fluorescence intensity

nisin A
MIC compared with pentocin MQ1 (Bacillus spp.): lower | MIC compared with pentocin MQ1 (Micrococcus spp.): lower
